Reference: patent publication US12415834B2, “GhR-binding peptide and composition comprising same” (priority 2021, dated 2025)
Starred links: 1 amine or outer side, 2 acyl side, 3 side chain; linkers in the order of their positions; H or OH if unused. Positions of bridges follow the written chain, without caps; N, C: chain ends. Non-standard residues stand in square brackets, D forms with d. Residues, ends and D or L forms follow the SMILES beside them. Groups on a side chain read outwards from the residue. *: point of attachment. X3 = NC(=O)[C@H](CCCCN*)NC(=O)CC[C@H](NC(=O)CC[C@H](NC(=O)CCCCCCCCCCCCCCC(=O)O)C(=O)O)C(=O)O; X10 = NC(=O)[C@H](CCCCN*)NC(=O)CC[C@H](NC(=O)CC[C@H](NC(=O)CCCc1ccc(I)cc1)C(=O)O)C(=O)O; X5 = NC(=O)[C@H](CCCCN*)NC(=O)CC[C@H](NC(=O)CC[C@H](NC(=O)CCCCCc1ccccc1)C(=O)O)C(=O)O; Trp(1-CH2CO) = O=C([C@H](Cc1cn(CC(=O)[*:3])c2ccccc12)N[*:1])[*:2]; Trp(5-OMe) = COc1ccc2[nH]cc(C[C@H](N)C(=O)O)c2c1; Butanoyl(4-(4-I-phenyl)) = O=C(CCCc1ccc(I)cc1)*; Trp(5-OH) = N[C@@H](Cc1c[nH]c2ccc(O)cc12)C(=O)O; Phe(4-COOH) = N[C@@H](Cc1ccc(C(=O)O)cc1)C(=O)O; Piperazinyl(4-CH2COOH) = O=C(O)CN1CCN(*)CC1; X7 = O=C(O)CN1CCC(N[*:1])(C(=O)[*:2])CC1; γGlu = O=C(O)[C@H](CCC(=O)[*:2])N[*:1]; NMeK = CN[C@@H](CCCCN)C(=O)O; X4 = O=C(CN[*:2])[*:1]; Aib = CC(C)(N)C(=O)O; CO = O=C([*:1])[*:2]

The compounds below were run against T1, Recombinant human GhR-Fc protein (Homo sapiens, UniProt P10912) (assay: SPR binding assay (Biacore T200, single-cycle kinetics) of peptides against immobilized human GhR-Fc). Conditions: SPR, hGhR; Table 1 bicyclic peptides; KD calculated from ka and kd; read-out: KD.
T1 construct: purchased R&D Systems
Protocol: SPR assay was performed using Biacore T200 (cytiva: Former GE Healthcare). After the equilibration of Series S Sensor Chip CM5 (produced by cytiva: Former GE Healthcare) with Running Buffer (HBS-EP with 1% (v/v) DMSO), an EDC/NHS mixture was injected at a flow rate of 10 μL/min for 7 minutes to thereby activate the functional groups on sensor chip. Recombinant human GhR-Fc protein (R&D Systems) in 10 mM Acetate (pH 4.0) was injected immobilized to at a flow rate of 5 μL/min. It took 7 minutes to immobilize the GhR on the substrate surfaces of the sensor chip. Then Ethanolamine was injected at a flow rate of 10 μL/min for 7 minutes. 1M Ethanolamine (aq.) was injected at a flow rate of 10 μL/min for 420 seconds for capping.
Using these Peptide Samples, kinetics of peptides against human GhR-Fc protein were measured. The method adopted for sample measurement was a single-cycle kinetics method. The analysis was conducted using the evaluation software provided with Biacore T200. A DMSO correction curve obtained by solvent correction measurements was applied for the analysis. Kinetics fitting was done on the difference data obtained by subtracting the baseline data from sample measurement data. KD values were calculated based on the association rate constant (ka) and dissociation rate constant (kd). […]

T1 sequence (P10912 with tags, fused parts or gaps limits assumed): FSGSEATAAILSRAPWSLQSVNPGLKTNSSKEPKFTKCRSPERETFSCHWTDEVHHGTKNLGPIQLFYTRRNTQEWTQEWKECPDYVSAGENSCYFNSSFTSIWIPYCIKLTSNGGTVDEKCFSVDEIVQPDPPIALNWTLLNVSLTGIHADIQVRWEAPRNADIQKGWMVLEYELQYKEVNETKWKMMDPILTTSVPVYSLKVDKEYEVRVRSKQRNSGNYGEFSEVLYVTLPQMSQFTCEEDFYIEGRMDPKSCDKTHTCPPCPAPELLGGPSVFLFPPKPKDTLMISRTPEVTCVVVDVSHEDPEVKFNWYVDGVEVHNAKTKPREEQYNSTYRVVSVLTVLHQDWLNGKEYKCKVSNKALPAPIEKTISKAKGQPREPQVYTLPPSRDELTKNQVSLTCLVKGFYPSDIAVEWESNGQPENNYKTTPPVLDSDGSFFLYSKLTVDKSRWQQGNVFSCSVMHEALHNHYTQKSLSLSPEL

`CC(C)[C@@H]1NC(=O)[C@H](C(C)C)NC(=O)[C@@H]2CCCCNC(=O)Cn3cc(c4ccccc43)C[C@H](NC(=O)[C@H](CC(N)=O)NC(=O)[C@H](CO)NC1=O)C(=O)N[C@@H](Cc1ccc(O)cc1)C(=O)N[C@@H](CCCCN)C(=O)N[C@@H](Cc1c[nH]c3ccc(O)cc13)C(=O)NC(C)(C)C(=O)N[C@@H](C(C)C)C(=O)N[C@H](C(=O)NCCCC[C@H](NC(=O)CC[C@H](NC(=O)CC[C@H](NC(=O)CCCc1ccc(I)cc1)C(=O)O)C(=O)O)C(N)=O)CSCC(=O)N[C@@H](Cc1ccc(C(=O)O)cc1)C(=O)N2C` [Compound 21] ({CH2CO}-[Phe(4-COOH)][NMeK]VVSN[Trp(1-CH2CO)]YK[Trp(5-OH)][Aib]VC-X10; lactam 2-7; thioether N-13) and `CC(C)[C@@H]1NC(=O)[C@H](C(C)C)NC(=O)[C@@H]2CCCCNC(=O)Cn3cc(c4ccccc43)C[C@H](NC(=O)[C@H](CC(N)=O)NC(=O)[C@H](CO)NC1=O)C(=O)N[C@@H](Cc1ccc(C(=O)O)cc1)C(=O)N[C@@H](CCCCN)C(=O)N[C@@H](Cc1c[nH]c3ccc(O)cc13)C(=O)NC(C)(C)C(=O)N[C@@H](C(C)C)C(=O)N[C@H](C(=O)NCCCC[C@H](NC(=O)CC[C@H](NC(=O)CC[C@H](NC(=O)CCCc1ccc(I)cc1)C(=O)O)C(=O)O)C(N)=O)CSCC(=O)N[C@@H](Cc1ccc(O)cc1)C(=O)N2C` [Compound 26] ({CH2CO}-Y[NMeK]VVSN[Trp(1-CH2CO)][Phe(4-COOH)]K[Trp(5-OH)][Aib]VC-X10; lactam 2-7; thioether N-13) are within 1.5-fold of each other in Kd: 1.07 nM for the first, 1.59 nM for the second.

First: CC(C)[C@@H]1NC(=O)[C@H](C(C)C)NC(=O)[C@@H]2CCCCNC(=O)CNC(=O)Cn3cc(c4ccccc43)C[C@H](NC(=O)[C@H](CC(N)=O)NC(=O)[C@H](CO)NC1=O)C(=O)N[C@@H](Cc1ccc(O)cc1)C(=O)N[C@@H](CCCCN)C(=O)N[C@@H](Cc1c[nH]c3ccc(O)cc13)C(=O)NC(C)(C)C(=O)N[C@@H](C(C)C)C(=O)N[C@H](C(=O)NCC(N)=O)CSCC(=O)N[C@@H](Cc1ccc(O)cc1)C(=O)N2C [Compound 2] ({CH2CO}-Y[NMeK]VVSN[Trp(1-CH2CO)]YK[Trp(5-OH)][Aib]VCG-NH2; linker 2-7 via X4; thioether N-13; C-terminus assumed)
Second: CC(C)[C@@H]1NC(=O)[C@H](C(C)C)NC(=O)[C@@H]2CCCCNC(=O)Cn3cc(c4ccccc43)C[C@H](NC(=O)[C@H](CC(N)=O)NC(=O)[C@H](CO)NC1=O)C(=O)N[C@@H](Cc1ccc(O)cc1)C(=O)N[C@@H](CCCCN)C(=O)N[C@@H](Cc1c[nH]c3ccc(O)cc13)C(=O)NC(C)(C)C(=O)N[C@@H](C(C)C)C(=O)N[C@H](C(=O)NCC(N)=O)CSCC(=O)N[C@@H](Cc1ccc(O)cc1)C(=O)N2C [Compound 1] ({CH2CO}-Y[NMeK]VVSN[Trp(1-CH2CO)]YK[Trp(5-OH)][Aib]VCG-NH2; lactam 2-7; thioether N-13; C-terminus assumed)
The Kd of the first is 1.7-fold higher: 1.22 nM for the first, 0.7 nM for the second.

`CC(C)[C@@H]1NC(=O)[C@H](C(C)C)NC(=O)[C@@H]2CCCCNC(=O)Cn3cc(c4ccccc43)C[C@H](NC(=O)[C@H](CC(N)=O)NC(=O)[C@H](CO)NC1=O)C(=O)N[C@@H](Cc1ccc(C(=O)O)cc1)C(=O)N[C@@H](CCCCN)C(=O)N[C@@H](Cc1c[nH]c3ccc(O)cc13)C(=O)NC(C)(C)C(=O)N[C@@H](C(C)C)C(=O)N[C@H](C(=O)NCCCC[C@H](NC(=O)CC[C@H](NC(=O)CC[C@H](NC(=O)CCCCCCCCCCCCCCC(=O)O)C(=O)O)C(=O)O)C(N)=O)CSCC(=O)N[C@@H](Cc1ccc(C(=O)O)cc1)C(=O)N2C` [Compound 11] ({CH2CO}-[Phe(4-COOH)][NMeK]VVSN[Trp(1-CH2CO)][Phe(4-COOH)]K[Trp(5-OH)][Aib]VC-X3; lactam 2-7; thioether N-13) and `CC(C)[C@@H]1NC(=O)[C@H](C(C)C)NC(=O)[C@@H]2CCCCNC(=O)Cn3cc(c4ccccc43)C[C@H](NC(=O)[C@H](CC(N)=O)NC(=O)[C@H](CO)NC1=O)C(=O)N[C@@H](Cc1ccc(C(=O)O)cc1)C(=O)N[C@@H](CCCCN)C(=O)N[C@@H](Cc1c[nH]c3ccc(O)cc13)C(=O)NC1(CCN(CC(=O)O)CC1)C(=O)N[C@@H](C(C)C)C(=O)N[C@H](C(=O)NCCCC[C@H](NC(=O)CC[C@H](NC(=O)CC[C@H](NC(=O)CCCCCCCCCCCCCCC(=O)O)C(=O)O)C(=O)O)C(N)=O)CSCC(=O)N[C@@H](Cc1ccc(O)cc1)C(=O)N2C` [Compound 23] ({CH2CO}-Y[NMeK]VVSN[Trp(1-CH2CO)][Phe(4-COOH)]K[Trp(5-OH)][X7]VC-X3; lactam 2-7; thioether N-13) are within 1.5-fold of each other in Kd: 2.85 nM for the first, 2.29 nM for the second.

`CC(C)[C@@H]1NC(=O)[C@H](C(C)C)NC(=O)[C@@H]2CCCCNC(=O)Cn3cc(c4ccccc43)C[C@H](NC(=O)[C@H](CC(N)=O)NC(=O)[C@H](CO)NC1=O)C(=O)N[C@@H](Cc1ccc(C(=O)O)cc1)C(=O)N[C@@H](CCCCN)C(=O)N[C@@H](Cc1c[nH]c3ccc(O)cc13)C(=O)NC(C)(C)C(=O)N[C@@H](C(C)C)C(=O)N[C@H](C(=O)NCCCC[C@H](NC(=O)CC[C@H](NC(=O)CC[C@H](NC(=O)CCCCCc1ccccc1)C(=O)O)C(=O)O)C(N)=O)CSCC(=O)N[C@@H](Cc1ccc(C(=O)O)cc1)C(=O)N2C` [Compound 16] ({CH2CO}-[Phe(4-COOH)][NMeK]VVSN[Trp(1-CH2CO)][Phe(4-COOH)]K[Trp(5-OH)][Aib]VC-X5; lactam 2-7; thioether N-13) gave a Kd of 1.93 nM.

Same assay, conditions: SPR, hGhR; Table 2 monocyclic peptides; KD calculated from ka and kd; read-out: KD

First: COc1ccc2[nH]cc(C[C@@H]3NC(=O)[C@H](CC(N)=O)NC(=O)[C@H](CO)NC(=O)[C@H](C(C)C)NC(=O)[C@H](C(C)C)NC(=O)[C@H](CCCCNC(=O)CC[C@H](NC(=O)CC[C@H](NC(=O)CCCc4ccc(I)cc4)C(=O)O)C(=O)O)N(C)C(=O)[C@H](Cc4ccc(O)cc4)NC(=O)CSC[C@@H](C(N)=O)NC(=O)[C@H](C(C)C)NC(=O)C(C)(C)NC(=O)[C@H](Cc4c[nH]c5ccc(O)cc45)NC(=O)[C@H](CCCCNC(=O)N4CCN(CC(=O)O)CC4)NC(=O)[C@H](Cc4ccc(C(=O)O)cc4)NC3=O)c2c1 [Compound 47] ({CH2CO}-Y[NMeK]([γGlu-γGlu-Butanoyl(4-(4-I-phenyl))])VVSN[Trp(5-OMe)][Phe(4-COOH)]K([CO-Piperazinyl(4-CH2COOH)])[Trp(5-OH)][Aib]VC-NH2; thioether N-13)
Second: COc1ccc2[nH]cc(C[C@@H]3NC(=O)[C@H](CC(N)=O)NC(=O)[C@H](CO)NC(=O)[C@H](C(C)C)NC(=O)[C@H](C(C)C)NC(=O)[C@H](CCCCNC(=O)CC[C@H](NC(=O)CCCc4ccc(I)cc4)C(=O)O)N(C)C(=O)[C@H](Cc4ccc(O)cc4)NC(=O)CSC[C@@H](C(=O)NCC(=O)N4CCC[C@H]4C(=O)N[C@H](CO)C(=O)N[C@H](CO)C(=O)N[C@H](CO)C(N)=O)NC(=O)[C@H](C(C)C)NC(=O)C(C)(C)NC(=O)[C@H](Cc4c[nH]c5ccc(O)cc45)NC(=O)[C@H](CCCCN)NC(=O)[C@H](Cc4ccc(C(=O)O)cc4)NC3=O)c2c1 [Compound 54] ({CH2CO}-Y[NMeK]([γGlu-Butanoyl(4-(4-I-phenyl))])VVSN[Trp(5-OMe)][Phe(4-COOH)]K[Trp(5-OH)][Aib]VCGP[dS][dS][dS]-NH2; thioether N-13)
The Kd of the first is 3.5-fold higher: 7.38 nM for the first, 2.08 nM for the second. The second binds more tightly here.
